Test results from patent US6653081B2, “Methods for monitoring antiretroviral therapy and guiding therapeutic decision in the treatment of HIV/AIDS” (ViroLogic, Inc., priority 2000, dated 2003).
Several values for one entry are separate records, joined by “and”; a condition that tells them apart may be missing. Equal entries are not always repeated. Entries after “also recorded” stand apart in the source; their conditions may differ.

Legend:
RTV-011073/241V/277T = assay: Phenotypic susceptibility assay, RTV-011073/241V/277T; type: cell-based, HIV; settings: RTV-011073 with 241 and 277 reverted
Excerpt: The resistance test vectors containing a functional luciferase gene cassette were constructed and host cells were transfected with the resistance test vector DNA. The resistant test vectors contained patient-derived reverse transcriptase and protease sequences that were either susceptible or resistant to the antiretroviral agents, such as nucleoside reverse transcriptase inhibitors, (NRTIs) non-nucleoside reverse transcriptase inhibitors […] protease inhibitors. The resistance test vector viral particles produced by transfecting the resistance test vector DNA into host cells, either in the presence or absence of PRIs, were used to infect target host cells grown either in the absence of NRTIs or NNRTIs, or in the presence of increasing concentrations of the drug. The amount of luciferase activity produced in infected target host cells in the presence of varying concentrations of drug was compared to the amount of luciferase produced in infected target host cells in the absence of drug. […] The IC50 values were determined by plotting percent drug inhibition vs. log10 drug concentration. Stimulation of viral replication was measured as the percent increase in luciferase activity detected when infection occurs in the presence of drug as compared to in the absence of drug.
Host cells were seeded in 10-cm-diameter dishes and were transfected several days after plating with resistance test vector plasmid DNA and the envelope expression vector. […] HIV capsid protein (p24) levels in the harvested cell culture media were determined by an EIA method as described by the manufacturer (SAIC; Frederick, Md.). […] The inhibitory effect of the drug was determined using the following equation: […]
where RLUluc [drug] is the Relative Light Unit of luciferase activity in infected cells in the presence of drug, and RLUluc is the Relative Light Unit of luciferase activity in infected cells in the absence of drug. […] The percent luciferase stimulation is the negative of the % inhibition calculated using the formula above. […]

RTV-V245T = assay: Phenotypic susceptibility assay, RTV-V245T; type: cell-based, HIV-1; settings: site-directed V245T alone
Excerpt: (§1) The resistance test vectors containing a functional luciferase gene cassette were constructed and host cells were transfected with the resistance test vector DNA. The resistant test vectors contained patient-derived reverse transcriptase and protease sequences that were either susceptible or resistant to the antiretroviral agents, such as nucleoside reverse transcriptase inhibitors, (NRTIs) non-nucleoside reverse transcriptase inhibitors […] protease inhibitors. The resistance test vector viral particles produced by transfecting the resistance test vector DNA into host cells, either in the presence or absence of PRIs, were used to infect target host cells grown either in the absence of NRTIs or NNRTIs, or in the presence of increasing concentrations of the drug. The amount of luciferase activity produced in infected target host cells in the presence of varying concentrations of drug was compared to the amount of luciferase produced in infected target host cells in the absence of drug. “Drug resistance” was measured as the amount of drug required to inhibit by 50% the luciferase activity detected in the absence of drug (inhibitory concentration 50%, IC50). The IC50 values were determined by plotting percent drug inhibition vs. log10 drug concentration. Stimulation of viral replication was measured as the percent increase in luciferase activity detected when infection occurs in the presence of drug as compared to in the absence of drug.
(§2) Host cells were seeded in 10-cm-diameter dishes and were transfected several days after plating with resistance test vector plasmid DNA and the envelope expression vector. Transfections were performed using a calcium-phosphate precipitation procedure. The cell culture media containing the DNA precipitate was replaced with fresh medium, from one to 24 hours, after transfection. Cell culture media containing resistance test vector viral particles was harvested one to four days after transfection and was passed through a […] filter before being used to infect target host cells, or being stored at −80° C. HIV capsid protein (p24) levels in the harvested cell culture media were determined by an EIA method as described by the manufacturer (SAIC; Frederick, Md.). Before infection, target cells (293 and 293/T) were plated in cell culture media. Control infections were performed using cell culture media from mock transfections (no DNA) or transfections containing the resistance test vector plasmid DNA without the envelope expression plasmid. One to three or more days after infection, the media was removed and cell lysis buffer (Promega) was added to each well. Cell lysates were assayed for luciferase activity (FIG. 3). The inhibitory effect of the drug was determined using the following equation:
(§3) % luciferase inhibition=1−(RLUluc[drug]÷RLUluc)×100
(§4) where RLUluc [drug] is the Relative Light Unit of luciferase activity in infected cells in the presence of drug, and RLUluc is the Relative Light Unit of luciferase activity in infected cells in the absence of drug. IC50values were obtained from the sigmoidal curves that were generated from the data by plotting the percent inhibition of luciferase activity vs. the log10 drug concentration. The percent luciferase stimulation is the negative of the % inhibition calculated using the formula above.
(§5) A resistance test vector containing a single mutation, V245T, (RTV-V245T) was constructed and tested in the phenotypic assay described earlier. The results were compared to those determined using a genetically defined resistance test vector that was wild type at position 245. We determined the pattern of phenotypic susceptibility to the NNRTIs, delavirdine, nevirapine and efavirenz, in RTV-V245E.

RTV-010829/245V = assay: Phenotypic susceptibility assay, RTV-010829/245V; type: cell-based, HIV; settings: RTV-010829 with V245E reverted
Excerpt: as §1, §2, §3, §4
A resistance test vector containing all of the mutations present in RTV-010829 except for the V245E mutation (RTV-010829/245V) was constructed and tested using the phenotypic assay described earlier. The results were compared to those determined using the parent RTV-010829. We determined the pattern of phenotypic susceptibility to the NNRTIs, delavirdine, nevirapine and efavirenz, in the reverted vector RTV-010829/245V. […] A resistance test vector containing all of the mutations present in RTV-010829 except for the I270M (RTV-010829/270I) was constructed and tested using the phenotypic assay described earlier. […]

RTV-010829 = assay: Phenotypic susceptibility assay, RTV-010829; type: cell-based, HIV; settings: patient 10829; for decrease in susceptibility: K103N, V245E, I270M
Excerpt: as §1, §2, §3, §4
A resistance test vector was constructed as described in Example 1 from a virus sample obtained from patient 10829. The prior and current treatment regimens are unknown. Isolation of viral RNA and RT/PCR was used to generate a patient derived segment (PDS) that comprised viral sequences coding for all of PR and aa 1-313 of RT. The PDS were inserted into an indicator gene viral vector to generate a resistance test vector designated RTV-010829. RTV-010829 was then tested in a phenotypic assay to determine accurately and quantitatively the level of susceptibility to a panel of anti-retroviral drugs. […]

RTV-1033-3/106V = assay: Phenotypic susceptibility assay, RTV-1033-3/106V; type: cell-based, HIV; settings: RTV-1033-3 with V106A reverted
Excerpt: as §1, §2, §3, §4
A resistance test vector containing all of the mutations present in RTV-1033-3 except for V106A (RTV-1033-3/106V) was constructed and tested using the phenotypic assay described earlier. The results were compared to those determined using the parent RTV-1033-3. We determined the pattern of phenotypic susceptibility to the NNRTIs, delavirdine, nevirapine and efavirenz, in the reverted vector, RTV-1033-3/106V.

RTV-K103N/I135T/V245T = assay: Phenotypic susceptibility assay, RTV-K103N/I135T/V245T; type: cell-based, HIV-1; settings: site-directed K103N + I135T + V245T
Excerpt: as §1, §2, §3, §4
as §5, with “three mutations, K103N, I135T and V245T (RTV-K103N/I135T/V245T)” for “a single mutation, V245T, (RTV-V245T)”, “positions 103, 135 and” for “position”, “RTV-K103N.” for “RTV-V245E.”

| SMILES | reductions in susceptibility compared to wild type control RTV (RTV-011073/241V/277T) | drug-dependent stimulation of viral replication (RTV-V245T) | reductions in susceptibility compared to wild type control RTV (RTV-V245T) | drug-dependent stimulation of viral replication (RTV-010829/245V) | reductions in susceptibility compared to wild type control RTV (RTV-010829/245V) | drug-dependent stimulation of viral replication (RTV-010829) | decrease in susceptibility (RTV-010829) | drug-dependent stimulation of viral replication (RTV-1033-3/106V) | reduction in susceptibility compared to wild type control RTV (RTV-1033-3/106V) | drug-dependent stimulation of viral replication (RTV-K103N/I135T/V245T) | reductions in susceptibility compared to wild type control RTV (RTV-K103N/I135T/V245T) | increase in susceptibility (hyper-susceptibility) compared to wild type control RTV (RTV-1033-3/106V) |
| --- | --- | --- | --- | --- | --- | --- | --- | --- | --- | --- | --- | --- |
| Cc1ccnc2c1NC(=O)c1cccnc1N2C1CC1 [nevirapine] | 126 fold | no drug-dependent stimulation | no reductions; also recorded: no significant reduction | ~80% | 505 fold | ~100% | > 600 fold | ~40% | 9 fold | ~40% | 594 fold and 544 fold | – |
| CC(C)Nc1cccnc1N1CCN(C(=O)c2cc3cc(NS(C)(=O)=O)ccc3[nH]2)CC1 [delavirdine] | 50 fold | no drug-dependent stimulation | no reductions; also recorded: no significant reduction | ~60% | 182 fold | ~100% | > 250 fold | no drug-dependent stimulation | – | ~50% | > 250 fold | 20 fold |
| O=C1Nc2ccc(Cl)cc2[C@@](C#CC2CC2)(C(F)(F)F)O1 [efavirenz] | 54 fold | no drug-dependent stimulation | no reductions; also recorded: no significant reduction | ~60% | 189 fold | ~80% | > 450 fold | ~20% | no reduction | ~25% | 174 fold | – |
